In US11596639B2, “Substituted indole Mcl-1 inhibitors” (Vanderbilt University, priority 2016, dated 2023) one finds Ki and GI50 data, which are given here for 17 compounds.

Like-named read-outs stand apart in the source and are kept apart here. A value given as a limit tells only on which side of the number the result lay.

One assay concerns the target Mcl-1 (Homo sapiens (Human), UniProt Q07820). The assay can be described thus: Fluorescence polarization anisotropy (FPA) competition assay, FITC-Bak or FITC-Bim BH3 peptide. It is filed as binding. To be noted: read-out: Ki for Inhibition of Mcl-1 by FPA assay.
In assay [1] the test system is H929 human cancer cell lines. Put plainly: Cellular viability / proliferation (Cell TiterGlo, 72 h). In kind it is cell-based. In outline: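 Compounds were added as 2-fold serial dilutions from 50 μM (final DMSO <1%) to H929 cells seeded 1,000 per well in 10% FBS medium one day earlier.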
For orientation: ATP-based viability assays read luminescence as a measure of living cells.

The mark [2] stands for this setting: Homo sapiens, NCI-H929, 72 h, read-out: GI50 on cellular proliferation of H929 human cancer cell lines, H929 cells, 72 h, Cell TiterGlo, 10% FBS.
The mark [3] stands for this setting: H929 cells, 72 h, Cell TiterGlo, 10% FBS, read-out: GI50 on cellular proliferation of H929 human cancer cell lines.

Chain of Mcl-1 (Q07820 172-327): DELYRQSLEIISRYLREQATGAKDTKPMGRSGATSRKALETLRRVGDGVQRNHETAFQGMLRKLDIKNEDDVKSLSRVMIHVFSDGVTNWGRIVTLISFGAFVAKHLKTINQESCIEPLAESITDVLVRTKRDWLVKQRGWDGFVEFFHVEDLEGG

With `COCCn1c(C(=O)O)cc2c(N3C[C@@H](C)n4c(c(CCCOc5cc(C)c(Cl)c(C)c5)c5ccc(Cl)c(-c6c(C)nn(C)c6C)c54)C3=O)cccc21` [Example 353, (R)-4-(7-Chloro-10-(3-(4-chloro-3,5-dimethylphenoxy)propyl)-4-methyl-1-oxo-6-(1,3,5-trimethyl-1H-pyrazol-4-yl)-3,4-dihydropyrazino[1,2-a]indol-2(1H)-yl)-1-(2-methoxyethyl)-1H-indole-2-carboxylic acid], at Mcl-1, the Ki amounted to 2.1 nM. Also, the GI50 in assay [1] (setting [2]) was found to be 2900 nM.
Regarding `COCCn1c(C(N)=O)cc2cccc(N3C[C@@H](C)n4c(c(CCCOc5cc(C)c(Cl)c(C)c5)c5ccc(Cl)c(-c6c(C)nn(C)c6C)c54)C3=O)c21` [Example 354, (R)-7-(7-Chloro-10-(3-(4-chloro-3,5-dimethylphenoxy)propyl)-4-methyl-1-oxo-6-(1,3,5-trimethyl-1H-pyrazol-4-yl)-3,4-dihydropyrazino[1,2-a]indol-2(1H)-yl)-1-(2-methoxyethyl)-1H-indole-2-carboxamide], on Mcl-1, the Ki is 4.3 nM. Further, in assay [1] (setting [2]), the GI50 was determined as 580 nM.
As to `Cc1cc(OCCCc2c3n(c4c(-c5c(C)nn(C)c5C)c(Cl)ccc24)[C@H](C)CN(c2cn(C)c4cc(F)c(C(=O)O)cc24)C3=O)cc(C)c1Cl` [Example 355, (M, R)-3-(7-Chloro-10-(3-(4-chloro-3,5-dimethylphenoxy)propyl)-4-methyl-1-oxo-6-(1,3,5-trimethyl-1H-pyrazol-4-yl)-3,4-dihydropyrazino[1,2-a]indol-2(1H)-yl)-6-fluoro-1-methyl-1H-indole-5-carboxylic acid], the Ki on Mcl-1 worked out at 1 nM. Moreover, in assay [1] (setting [3]), the GI50 came out at 730 nM.
`Cc1cc(OCCCc2c3n(c4c(-c5c(C)nn(C)c5C)c(Cl)ccc24)[C@H](C)CN(c2cc(C(C)C)cc4cc(C(=O)O)n(C)c24)C3=O)cc(C)c1Cl` [Example 356, (R)-7-(7-Chloro-10-(3-(4-chloro-3,5-dimethylphenoxy)propyl)-4-methyl-1-oxo-6-(1,3,5-trimethyl-1H-pyrazol-4-yl)-3,4-dihydropyrazino[1,2-a]indol-2(1H)-yl)-5-isopropyl-1-methyl-1H-indole-2-carboxylic acid]: the Ki at Mcl-1 was determined as 1.9 nM. The GI50 in assay [1] (setting [2]) was found to be 650 nM.
Consider `Cc1cc(OCCCc2c3n(c4c(-c5c(C)nn(C)c5C)c(Cl)ccc24)[C@H](C)CN(c2cn(C)c4ccc(-c5nnnn5C)cc24)C3=O)cc(C)c1Cl` [Example 358, (R)-7-Chloro-10-(3-(4-chloro-3,5-dimethylphenoxy)propyl)-4-methyl-2-(1-methyl-5-(1-methyl-1H-tetrazol-5-yl)-1H-indol-3-yl)-6-(1,3,5-trimethyl-1H-pyrazol-4-yl)-3,4-dihydropyrazino[1,2-a]indol-1(2H)-one], for which the Ki on Mcl-1 amounted to 4.2 nM. Further, the GI50 in assay [1] (setting [2]) worked out at 2300 nM.
For `Cc1cc(OCCCc2c3n(c4c(-c5c(C)nn(C)c5C)c(Cl)ccc24)[C@H](C)CN(c2cc(C(C)C)cc4cc(C(=O)O)n(Cc5ccccn5)c24)C3=O)cc(C)c1Cl` [Example 359, (R)-7-(7-Chloro-10-(3-(4-chloro-3,5-dimethylphenoxy)propyl)-4-methyl-1-oxo-6-(1,3,5-trimethyl-1H-pyrazol-4-yl)-3,4-dihydropyrazino[1,2-a]indol-2(1H)-yl)-5-isopropyl-1-(pyridin-2-ylmethyl)-1H-indole-2-carboxylic acid], the Ki at Mcl-1 worked out at 1.4 nM. For the same compound, the GI50 in assay [1] (setting [2]) was determined as 290 nM.
The like results for `COc1cccc(Cn2c(C(=O)O)cc3cccc(N4C[C@@H](C)n5c(c(CCCOc6cc(C)c(Cl)c(C)c6)c6ccc(Cl)c(-c7c(C)nn(C)c7C)c65)C4=O)c32)n1` [Example 360, (R)-7-(7-Chloro-10-(3-(4-chloro-3,5-dimethylphenoxy)propyl)-4-methyl-1-oxo-6-(1,3,5-trimethyl-1H-pyrazol-4-yl)-3,4-dihydropyrazino[1,2-a]indol-2(1H)-yl)-1-((6-methoxypyridin-2-yl)methyl)-1H-indole-2-carboxylic acid] were, in that order, 2.5 nM and 2500 nM.
As to `Cc1cc(OCCCc2c3n(c4c(-c5c(C)nn(C)c5C)c(Cl)ccc24)[C@H](C)CN(c2cn(C)c4ccc(C(=O)NO)cc24)C3=O)cc(C)c1Cl` [Example 361, (R)-3-(7-Chloro-10-(3-(4-chloro-3,5-dimethylphenoxy)propyl)-4-methyl-1-oxo-6-(1,3,5-trimethyl-1H-pyrazol-4-yl)-3,4-dihydropyrazino[1,2-a]indol-2(1H)-yl)-N-hydroxy-1-methyl-1H-indole-5-carboxamide], the Ki on Mcl-1 stood at 2 nM. In assay [1] (setting [2]), the GI50 came out at 290 nM.
The corresponding values for `Cc1cc(OCCCc2c3n(c4c(-c5c(C)nn(C)c5C)c(Cl)ccc24)[C@H](C)CN(c2cn(C)c4c(-c5nnn(C)n5)cccc24)C3=O)cc(C)c1Cl` [Example 362, (R)-7-Chloro-10-(3-(4-chloro-3,5-dimethylphenoxy)propyl)-4-methyl-2-(1-methyl-7-(2-methyl-2H-tetrazol-5-yl)-1H-indol-3-yl)-6-(1,3,5-trimethyl-1H-pyrazol-4-yl)-3,4-dihydropyrazino[1,2-a]indol-1(2H)-one] are 1.7 nM and 970 nM.
The corresponding values for `Cc1ccc(Cn2c(C(=O)O)cc3cccc(N4C[C@@H](C)n5c(c(CCCOc6cc(C)c(Cl)c(C)c6)c6ccc(Cl)c(-c7c(C)nn(C)c7C)c65)C4=O)c32)nc1` [Example 363, (R)-7-(7-Chloro-10-(3-(4-chloro-3,5-dimethylphenoxy)propyl)-4-methyl-1-oxo-6-(1,3,5-trimethyl-1H-pyrazol-4-yl)-3,4-dihydropyrazino[1,2-a]indol-2(1H)-yl)-1-((5-methylpyridin-2-yl)methyl)-1H-indole-2-carboxylic acid] are 1.6 nM and 1400 nM.
As to `COCCn1c(C(=O)O)cc2cc(C(C)C)cc(N3C[C@@H](C)n4c(c(CCCOc5cc(C)c(Cl)c(C)c5)c5ccc(Cl)c(-c6c(C)nn(C)c6C)c54)C3=O)c21` [Example 364, (R)-7-(7-Chloro-10-(3-(4-chloro-3,5-dimethylphenoxy)propyl)-4-methyl-1-oxo-6-(1,3,5-trimethyl-1H-pyrazol-4-yl)-3,4-dihydropyrazino[1,2-a]indol-2(1H)-yl)-5-isopropyl-1-(2-methoxyethyl)-1H-indole-2-carboxylic acid], the Ki at Mcl-1 was found to be 1 nM. In assay [1] (setting [2]), the GI50 stood at 540 nM.
The corresponding values for `Cc1cc(OCCCc2c3n(c4c(-c5c(C)nn(C)c5C)c(Cl)ccc24)[C@H](C)CN(c2cn(C)c4cc(Cl)c(C(=O)O)cc24)C3=O)cc(C)c1Cl` [Example 365, (R)-6-Chloro-3-(7-chloro-10-(3-(4-chloro-3,5-dimethylphenoxy)propyl)-4-methyl-1-oxo-6-(1,3,5-trimethyl-1H-pyrazol-4-yl)-3,4-dihydropyrazino[1,2-a]indol-2(1H)-yl)-1-methyl-1H-indole-5-carboxylic acid] are 1.7 nM and 2000 nM.
With `Cc1cc(OCCCc2c3n(c4c(-c5c(C)nn(C)c5C)c(Cl)ccc24)[C@H](C)CN(c2cn(C)c4ccc(C(=O)NN)cc24)C3=O)cc(C)c1Cl` [Example 366, (R)-3-(7-Chloro-10-(3-(4-chloro-3,5-dimethylphenoxy)propyl)-4-methyl-1-oxo-6-(1,3,5-trimethyl-1H-pyrazol-4-yl)-3,4-dihydropyrazino[1,2-a]indol-2(1H)-yl)-1-methyl-1H-indole-5-carbohydrazide], the inhibition constant Ki on Mcl-1 was 2.9 nM. Moreover, in assay [1] (setting [2]), the GI50 turned out to be 440 nM.
On to `Cc1cc(OCCCc2c3n(c4c(-c5c(C)nn(C)c5C)c(Cl)ccc24)[C@H](C)CN(c2cccc4c2cc(C(=O)O)n4CCN2CCOCC2)C3=O)cc(C)c1Cl` [Example 367, (R)-4-(7-Chloro-10-(3-(4-chloro-3,5-dimethylphenoxy)propyl)-4-methyl-1-oxo-6-(1,3,5-trimethyl-1H-pyrazol-4-yl)-3,4-dihydropyrazino[1,2-a]indol-2(1H)-yl)-1-(2-morpholinoethyl)-1H-indole-2-carboxylic acid], for which, at Mcl-1, the Ki was 1.2 nM. Moreover, the GI50 in assay [1] (setting [2]) is 400 nM.
Take `Cc1cc(OCCCc2c3n(c4c(-c5c(C)nn(C)c5C)c(Cl)ccc24)[C@H](C)CN(c2cccc4ccc(C(=O)O)cc24)C3=O)cc(C)c1Cl` [Example 368, (P, R)-8-(7-Chloro-10-(3-(4-chloro-3,5-dimethylphenoxy)propyl)-4-methyl-1-oxo-6-(1,3,5-trimethyl-1H-pyrazol-4-yl)-3,4-dihydropyrazino[1,2-a]indol-2(1H)-yl)-2-naphthoic acid]: the Ki on Mcl-1 was determined as 1.4 nM. In addition, the GI50 in assay [1] (setting [3]) is 620 nM.
Take `Cc1cc(OCCCc2c3n(c4c(-c5c(C)nn(C)c5C)c(Cl)ccc24)[C@H](C)CN(c2cn(C)c4cc(-c5nnn(C)n5)ccc24)C3=O)cc(C)c1Cl` [Example 370, (R)-7-Chloro-10-(3-(4-chloro-3,5-dimethylphenoxy)propyl)-4-methyl-2-(1-methyl-6-(2-methyl-2H-tetrazol-5-yl)-1H-indol-3-yl)-6-(1,3,5-trimethyl-1H-pyrazol-4-yl)-3,4-dihydropyrazino[1,2-a]indol-1(2H)-one]: the Ki at Mcl-1 was 2.8 nM. For the same compound, in assay [1] (setting [2]), the GI50 was found to be 4500 nM.
The like results for `Cc1ccnc(Cn2c(C(=O)O)cc3cccc(N4C[C@@H](C)n5c(c(CCCOc6cc(C)c(Cl)c(C)c6)c6ccc(Cl)c(-c7c(C)nn(C)c7C)c65)C4=O)c32)c1` [Example 371, (R)-7-(7-Chloro-10-(3-(4-chloro-3,5-dimethylphenoxy)propyl)-4-methyl-1-oxo-6-(1,3,5-trimethyl-1H-pyrazol-4-yl)-3,4-dihydropyrazino[1,2-a]indol-2(1H)-yl)-1-((4-methylpyridin-2-yl)methyl)-1H-indole-2-carboxylic acid] were, in that order, < 1 nM and 300 nM.

As a reminder, the Ki is the dissociation constant of the complex between target and ligand, obtained from inhibition or displacement.
